Assay results from PubChem BioAssay AID248 (DTP/NCI, 2004).
Inconclusive results and toxic doses are left out. Cut-off read from the data, not from the text of the source: active = T/C of 150% or more; inactive = T/C below 125%.

Test system: L1210 leukemia ip in BDF1 mice, survival T/C
Assay: NCI In Vivo Anticancer Drug Screen. Data for tumor model L1210 Leukemia (intraperitoneal) in B6D2F1 (BDF1) mice
Details: endpoint: mean survival time, higher = longer survival
Outline: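 Survival endpoint. Drug-treated group vs vehicle group, expressed as T divided by C. Tumor passaged by transplantation.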

[1] = dose: 100.0 mg/kg/injection, schedule: Q04DX003 (ip), vehicle: Klucel (hydroxypropylcellulose) (HPC)
[2] = dose: 200.0 mg/kg/injection, schedule: Q04DX003 (ip), vehicle: Klucel (hydroxypropylcellulose) (HPC)
[3] = dose: 400.0 mg/kg/injection, schedule: Q04DX003 (ip), vehicle: Klucel (hydroxypropylcellulose) (HPC)
[4] = dose: 100.0 mg/kg/injection, schedule: Q01DX001 (ip), vehicle: saline
[5] = dose: 200.0 mg/kg/injection, schedule: Q01DX001 (ip), vehicle: saline
[6] = dose: 400.0 mg/kg/injection, schedule: Q01DX001 (ip), vehicle: saline
[7] = dose: 100.0 mg/kg/injection, schedule: Q01DX009 (ip), vehicle: saline
[8] = dose: 200.0 mg/kg/injection, schedule: Q01DX009 (ip), vehicle: saline

Measured: T/C

CC(=O)c1cccc2c1cc(Cl)c1ccccc12
inactive: dose: 55.0 mg/kg/injection, schedule: Q01DX Z (ip), vehicle: methylcellulose (MC) 100 % of control | dose: 83.0 mg/kg/injection, schedule: Q01DX Z (ip), vehicle: methylcellulose (MC) 93 % of control | dose: 125.0 mg/kg/injection, schedule: Q01DX Z (ip), vehicle: methylcellulose (MC) 93 % of control

COC(=O)C1(C(=O)OC)C2CCCCC21C (configuration not stated)
inactive: dose: 100.0 mg/kg/injection, schedule: Q01DX001 (ip), vehicle: Klucel (hydroxypropylcellulose) (HPC) 103 % of control | dose: 100.0 mg/kg/injection, schedule: Q01DX009 (ip), vehicle: Klucel (hydroxypropylcellulose) (HPC) 102 % of control | [1] 106 % of control | dose: 200.0 mg/kg/injection, schedule: Q01DX001 (ip), vehicle: Klucel (hydroxypropylcellulose) (HPC) 102 % of control | dose: 200.0 mg/kg/injection, schedule: Q01DX009 (ip), vehicle: Klucel (hydroxypropylcellulose) (HPC) 101 % of control | [2] 106 % of control | dose: 400.0 mg/kg/injection, schedule: Q01DX001 (ip), vehicle: Klucel (hydroxypropylcellulose) (HPC) 95 % of control | dose: 400.0 mg/kg/injection, schedule: Q01DX009 (ip), vehicle: Klucel (hydroxypropylcellulose) (HPC) 102 % of control | [3] 101 % of control

O=CNc1ncn[nH]1
inactive: dose: 50.0 mg/kg/injection, schedule: Q01DX001 (ip), vehicle: saline 98 % of control | [4] 98 % of control | [5] 104 % of control | [6] 104 % of control

CCCN(CCC)CCCCN(CCC)CCCN(CCC)CCC
inactive: [4] 107 % of control | [5] 94 % of control

Cc1c(Cl)cccc1NC(=O)c1ccc(Cl)c(Cl)c1
inactive: dose: 100.0 mg/kg/injection, schedule: Q01DX009 (ip), vehicle: gum acacia 88 % of control | [1] 103 % of control | dose: 200.0 mg/kg/injection, schedule: Q01DX009 (ip), vehicle: gum acacia 88 % of control | [2] 90 % of control | dose: 400.0 mg/kg/injection, schedule: Q01DX009 (ip), vehicle: gum acacia 91 % of control | [3] 95 % of control

Cn1c(=O)cc(CNc2ccc(-c3ccccc3)cc2)c2ccccc21
inactive: [4] 92 % of control | [5] 90 % of control | [6] 88 % of control

CC1OCC(C)(CO)CO1 (configuration not stated)
inactive: dose: 50.0 mg/kg/injection, schedule: Q01DX009 (ip), vehicle: saline 102 % of control | [7] 101 % of control | dose: 100.0 mg/kg/injection, schedule: Q04DX003 (ip), vehicle: acetone 106 % of control | [8] 98 % of control | dose: 200.0 mg/kg/injection, schedule: Q04DX003 (ip), vehicle: acetone 122 % of control | dose: 400.0 mg/kg/injection, schedule: Q04DX003 (ip), vehicle: acetone 111 % of control

O=C1OC(c2ccc([N+](=O)[O-])cc2)=N/C1=C\c1ccc(Cl)cc1
inactive: [7] 94 % of control | dose: 100.0 mg/kg/injection, schedule: Q04DX002 (ip), vehicle: saline 89 % of control | [8] 91 % of control | dose: 200.0 mg/kg/injection, schedule: Q04DX002 (ip), vehicle: saline 92 % of control | dose: 400.0 mg/kg/injection, schedule: Q01DX009 (ip), vehicle: saline 91 % of control | dose: 400.0 mg/kg/injection, schedule: Q04DX002 (ip), vehicle: saline 92 % of control

COc1ccccc1/C=C(\S)C(=O)O
inactive: [4] 103 % of control | [5] 97 % of control | [6] 97 % of control
